The NIST ThermoML archive (doi:10.1016/j.jct.2004.12.014)

Tests used:
[1] = xn = mol fraction of the nth substance listed; conditions: 318.15 K, 101 kPa, Liquid
[2] = excess molar enthalpy (molar enthalpy of mixing); xn = mol fraction of the nth substance listed; conditions: 318.15 K, 101 kPa, Liquid

CCCCCOC(=O)CC [pentyl propanoate] + CCCCCCCCCCCCC
Conditions | excess molar enthalpy [kJ/mol] | excess molar volume [m3/mol]
[1], x1 = 0.0877 | – | 2.09e-07
[1], x1 = 0.1642 | – | 3.71e-07
[1], x1 = 0.2425 | – | 5.1e-07
[1], x1 = 0.3196 | – | 6.05e-07
[1], x1 = 0.3804 | – | 6.65e-07
[1], x1 = 0.4461 | – | 6.93e-07
[1], x1 = 0.5107 | – | 7.04e-07
[1], x1 = 0.5701 | – | 6.95e-07
[1], x1 = 0.6258 | – | 6.64e-07
[1], x1 = 0.6801 | – | 6.16e-07
[1], x1 = 0.7305 | – | 5.62e-07
[1], x1 = 0.7814 | – | 4.99e-07
[1], x1 = 0.8272 | – | 4.41e-07
[1], x1 = 0.8719 | – | 3.34e-07
[1], x1 = 0.9166 | – | 2.64e-07
[1], x1 = 0.9578 | – | 1.29e-07
[2], x1 = 0.0691 | 0.242 | –
[2], x1 = 0.1382 | 0.439 | –
[2], x1 = 0.2136 | 0.63 | –
[2], x1 = 0.2861 | 0.774 | –
[2], x1 = 0.3564 | 0.875 | –
[2], x1 = 0.4222 | 0.935 | –
[2], x1 = 0.4822 | 0.959 | –
[2], x1 = 0.5355 | 0.955 | –
[2], x1 = 0.578 | 0.93 | –
[2], x1 = 0.5956 | 0.917 | –
[2], x1 = 0.6423 | 0.865 | –
[2], x1 = 0.6875 | 0.806 | –
[2], x1 = 0.7398 | 0.717 | –
[2], x1 = 0.7927 | 0.62 | –
[2], x1 = 0.8474 | 0.495 | –
[2], x1 = 0.9008 | 0.344 | –
[2], x1 = 0.9546 | 0.174 | –

CCCCCOC(=O)CC [pentyl propanoate] + CCCCCCCCCCCCCCC
Conditions | excess molar enthalpy [kJ/mol] | excess molar volume [m3/mol]
[1], x1 = 0.0451 | – | 1.37e-07
[1], x1 = 0.1011 | – | 2.83e-07
[1], x1 = 0.1866 | – | 4.41e-07
[1], x1 = 0.2665 | – | 5.63e-07
[1], x1 = 0.341 | – | 6.68e-07
[1], x1 = 0.4128 | – | 7.28e-07
[1], x1 = 0.478 | – | 7.64e-07
[1], x1 = 0.5422 | – | 7.75e-07
[1], x1 = 0.5989 | – | 7.59e-07
[1], x1 = 0.6522 | – | 7.35e-07
[1], x1 = 0.7029 | – | 6.74e-07
[1], x1 = 0.7542 | – | 6.2e-07
[1], x1 = 0.7997 | – | 5.33e-07
[1], x1 = 0.8438 | – | 4.51e-07
[1], x1 = 0.8845 | – | 3.62e-07
[1], x1 = 0.924 | – | 2.42e-07
[1], x1 = 0.9627 | – | 1.57e-07
[2], x1 = 0.0757 | 0.277 | –
[2], x1 = 0.1563 | 0.519 | –
[2], x1 = 0.2383 | 0.728 | –
[2], x1 = 0.3152 | 0.888 | –
[2], x1 = 0.3915 | 0.995 | –
[2], x1 = 0.4596 | 1.05 | –
[2], x1 = 0.52 | 1.06 | –
[2], x1 = 0.5607 | 1.05 | –
[2], x1 = 0.5843 | 1.03 | –
[2], x1 = 0.6262 | 0.988 | –
[2], x1 = 0.6747 | 0.921 | –
[2], x1 = 0.7264 | 0.836 | –
[2], x1 = 0.7806 | 0.727 | –
[2], x1 = 0.8352 | 0.59 | –
[2], x1 = 0.892 | 0.417 | –
[2], x1 = 0.9477 | 0.224 | –
